Data published in ChEMBL document CHEMBL4177685, “Ionic liquid mediated stereoselective synthesis of alanine linked hybrid quinazoline-4(3H)-one derivatives perturbing the malarial reductase activity in folate pathway” (Bioorg Med Chem, 2017).
In brackets after ≈: the same amount, converted by molar mass.

Columns and labels:
bovine liver DHFR = test: Selectivity index, ratio of IC50 for African green monkey Vero cells to IC50 for bovine liver DHFR; type: toxicity; settings: read-out: Ratio IC50
Vero = test: Cytotoxicity against African green monkey Vero cells up to 15 ug/ml after 72 hrs by MTT assay; type: cell-based; settings: chlorocebus sabaeus
Plasmodium falciparum = test: Antimalarial activity against Plasmodium falciparum in infected in human RBC; type: functional, organism-based; settings: Erythrocyte
Dihydrofolate reductase = target: T1, Dihydrofolate reductase (Bos taurus, UniProt P00376); test: Inhibition of bovine liver DHFR using FH2 as substrate preincubated for 2 mins followed by substrate addition
T1 sequence (P00376 whole entry): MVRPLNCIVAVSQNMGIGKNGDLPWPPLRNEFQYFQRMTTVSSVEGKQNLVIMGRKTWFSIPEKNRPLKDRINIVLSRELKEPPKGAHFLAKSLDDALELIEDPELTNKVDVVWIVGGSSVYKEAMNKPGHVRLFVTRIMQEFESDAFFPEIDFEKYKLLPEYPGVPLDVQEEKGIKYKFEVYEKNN

| Structure (SMILES) | IC50 (Plasmodium falciparum) [µg/mL] | IC50 (Dihydrofolate reductase) [nM] | selectivity ratio (bovine liver DHFR) | Activity (Vero) |
| --- | --- | --- | --- | --- |
| CC(=O)Nc1ccc(S(=O)(=O)NC(C)c2nc3ccccc3c(=O)n2/N=C/c2cccc(C)c2)cc1 (stereo not given) | 0.72 (≈ 1.43 µM) | – | – | – |
| COc1ccccc1/C=N/n1c(C(C)NS(=O)(=O)c2ccc(NC(C)=O)cc2)nc2ccccc2c1=O (stereo not given) | 0.78 (≈ 1.5 µM) | – | – | – |
| COc1cccc(/C=N/n2c(C(C)NS(=O)(=O)c3ccc(NC(C)=O)cc3)nc3ccccc3c2=O)c1 (stereo not given) | 1.02 (≈ 1.97 µM) | – | – | – |
| CC(=O)Nc1ccc(S(=O)(=O)NC(C)c2nc3ccccc3c(=O)n2/N=C/c2cccc(Cl)c2)cc1 (stereo not given) | 1.01 (≈ 1.93 µM) | – | – | – |
| CC(=O)Nc1ccc(S(=O)(=O)NC(C)c2nc3ccccc3c(=O)n2/N=C/c2ccccc2Cl)cc1 (stereo not given) | 1.05 (≈ 2.01 µM) | – | – | – |
| CC(=O)Nc1ccc(S(=O)(=O)NC(C)c2nc3ccccc3c(=O)n2/N=C/c2cccc(O)c2)cc1 (stereo not given) | 1.01 (≈ 2 µM) | – | – | – |
| CC(=O)Nc1ccc(S(=O)(=O)NC(C)c2nc3ccccc3c(=O)n2/N=C/c2ccccc2Br)cc1 (stereo not given) | 0.78 (≈ 1.37 µM) | – | – | – |
| CC(=O)Nc1ccc(S(=O)(=O)NC(C)c2nc3ccccc3c(=O)n2/N=C/c2ccccc2O)cc1 (stereo not given) | 1.05 (≈ 2.08 µM) | – | – | – |
| CC(=O)Nc1ccc(S(=O)(=O)NC(C)c2nc3ccccc3c(=O)n2/N=C/c2ccccc2C)cc1 (stereo not given) | 1.28 (≈ 2.54 µM) | – | – | – |
| CC(=O)Nc1ccc(S(=O)(=O)NC(C)c2nc3ccccc3c(=O)n2/N=C/c2ccccc2[N+](=O)[O-])cc1 (stereo not given) | 0.7 (≈ 1.31 µM) | – | – | – |
| CC(=O)Nc1ccc(S(=O)(=O)NC(C)c2nc3ccccc3c(=O)n2/N=C/c2cccc([N+](=O)[O-])c2)cc1 (stereo not given) | 0.092 (≈ 0.172 µM) | 99.1 | 283 | Non-Toxic |
| CC(=O)Nc1ccc(S(=O)(=O)NC(C)c2nc3ccccc3c(=O)n2/N=C/c2ccccc2F)cc1 (stereo not given) | 0.7 (≈ 1.38 µM) | – | – | – |
| CCc1nc(N)nc(N)c1-c1ccc(Cl)cc1 [PYRIMETHAMINE] | 0.25 (≈ 1.01 µM) | – | – | – |
| C=C[C@H]1CN2CC[C@H]1C[C@H]2[C@H](O)c1ccnc2ccc(OC)cc12 [QUININE] | 0.268 (≈ 0.826 µM) | – | – | – |
| COc1cc(Cc2cnc(N)nc2N)cc(OC)c1OC [TRIMETHOPRIM] | 0.38 (≈ 1.31 µM) | – | – | – |

Continued, in another order:

| IC50 (Plasmodium falciparum) [µg/mL] | IC50 (Dihydrofolate reductase) [nM] | Structure (SMILES) | selectivity ratio (bovine liver DHFR) | Activity (Vero) |
| --- | --- | --- | --- | --- |
| 0.068 (≈ 0.135 µM) | 165 | CC(=O)Nc1ccc(S(=O)(=O)NC(C)c2nc3ccccc3c(=O)n2/N=C/c2ccc(C)cc2)cc1 (stereo not given) | 181 | Non-Toxic |
| 1.1 (≈ 2.25 µM) | – | CC(=O)Nc1ccc(S(=O)(=O)NC(C)c2nc3ccccc3c(=O)n2/N=C/c2ccccc2)cc1 (stereo not given) | – | – |
| 0.72 (≈ 1.42 µM) | – | CC(=O)Nc1ccc(S(=O)(=O)NC(C)c2nc3ccccc3c(=O)n2/N=C/c2ccc(O)cc2)cc1 (stereo not given) | – | – |
| 0.72 (≈ 1.37 µM) | – | CC(=O)Nc1ccc(S(=O)(=O)NC(C)c2nc3ccccc3c(=O)n2/N=C/c2ccc(Cl)cc2)cc1 (stereo not given) | – | – |
| 0.084 (≈ 0.157 µM) | 82.3 | CC(=O)Nc1ccc(S(=O)(=O)NC(C)c2nc3ccccc3c(=O)n2/N=C/c2ccc([N+](=O)[O-])cc2)cc1 (stereo not given) | 341 | Non-Toxic |
| 0.67 (≈ 1.18 µM) | – | CC(=O)Nc1ccc(S(=O)(=O)NC(C)c2nc3ccccc3c(=O)n2/N=C/c2ccc(Br)cc2)cc1 (stereo not given) | – | – |
| 0.084 (≈ 0.166 µM) | 67 | CC(=O)Nc1ccc(S(=O)(=O)NC(C)c2nc3ccccc3c(=O)n2/N=C/c2ccc(F)cc2)cc1 (stereo not given) | 441 | Non-Toxic |
| 1.02 (≈ 1.8 µM) | – | CC(=O)Nc1ccc(S(=O)(=O)NC(C)c2nc3ccccc3c(=O)n2/N=C/c2cccc(Br)c2)cc1 (stereo not given) | – | – |
| 0.092 (≈ 0.181 µM) | 53.2 | CC(=O)Nc1ccc(S(=O)(=O)NC(C)c2nc3ccccc3c(=O)n2/N=C/c2cccc(F)c2)cc1 (stereo not given) | 556 | Non-Toxic |
| 0.67 (≈ 1.29 µM) | – | COc1ccc(/C=N/n2c(C(C)NS(=O)(=O)c3ccc(NC(C)=O)cc3)nc3ccccc3c2=O)cc1 (stereo not given) | – | – |
